# According to PubChem BioAssay (NCI):
#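 Growth conditions: 96-well plates. Treatment: test compound, 48 hours, 5 concentrations. Analysis: linear interpolation between bracketing concentrations; unreached endpoints set to highest concentration. At the GI50, growth is halved. TGI denotes the concentration required for complete inhibition of growth.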
# System: 786-0 renal
# Experiment: NCI-60 cell line screen, 48 h
Structure (SMILES),GI50,TGI
CC(=O)O.[Au].c1ccc([PH+](c2ccccc2)c2ccccc2)cc1,1.67 µM,3.27 µM
COC(=O)C(=O)C(C(=O)C=C(C)C)C(=O)C(=O)Nc1ccc(C)cc1C (centres undefined),,> 100 µM
COC(=O)C(=Cc1cc(OC)c(OC)c(OC)c1-c1cc2c(cc1C(C)=O)OCO2)C(=O)OC,,61.6 µM
C/C(=C1/CCC/C(=C(/C)c2ccccc2)C1=O)c1ccccc1,,> 100 µM
CCCS(=O)(=O)/C(=C(\c1ccc(Br)cc1)S(=O)(=O)CCC)c1ccc(Br)cc1,,> 10 µM
O=C1NC2OCC(O)C(O)C2O1 (centres undefined),,> 100 µM

# System: A498 renal
# Experiment: NCI-60 cell line screen, 48 h
row,Structure (SMILES),TGI
1,COC(=O)C(=O)C(C(=O)C=C(C)C)C(=O)C(=O)Nc1ccc(C)cc1C (centres undefined),> 100 µM
2,CCCS(=O)(=O)/C(=C(\c1ccc(Br)cc1)S(=O)(=O)CCC)c1ccc(Br)cc1,> 10 µM
3,O=C1NC2OCC(O)C(O)C2O1 (centres undefined),> 100 µM

# System: A549 NSCLC
# Experiment: NCI-60 cell line screen, 48 h
Structure (SMILES),GI50,TGI
CC(=O)O.[Au].c1ccc([PH+](c2ccccc2)c2ccccc2)cc1,18.8 µM,66.1 µM
COC(=O)C(=O)C(C(=O)C=C(C)C)C(=O)C(=O)Nc1ccc(C)cc1C (centres undefined),,> 100 µM
COC(=O)C(=Cc1cc(OC)c(OC)c(OC)c1-c1cc2c(cc1C(C)=O)OCO2)C(=O)OC,,165 µM
C/C(=C1/CCC/C(=C(/C)c2ccccc2)C1=O)c1ccccc1,,> 100 µM
CCCS(=O)(=O)/C(=C(\c1ccc(Br)cc1)S(=O)(=O)CCC)c1ccc(Br)cc1,,> 10 µM
O=C1NC2OCC(O)C(O)C2O1 (centres undefined),,> 100 µM

# System: ACHN renal
# Experiment: NCI-60 cell line screen, 48 h
Structure (SMILES),GI50,TGI
CC(=O)O.[Au].c1ccc([PH+](c2ccccc2)c2ccccc2)cc1,2.86 µM,8.53 µM
COC(=O)C(=O)C(C(=O)C=C(C)C)C(=O)C(=O)Nc1ccc(C)cc1C (centres undefined),,> 100 µM
COC(=O)C(=Cc1cc(OC)c(OC)c(OC)c1-c1cc2c(cc1C(C)=O)OCO2)C(=O)OC,,100 µM
C/C(=C1/CCC/C(=C(/C)c2ccccc2)C1=O)c1ccccc1,,> 100 µM
CCCS(=O)(=O)/C(=C(\c1ccc(Br)cc1)S(=O)(=O)CCC)c1ccc(Br)cc1,,> 10 µM
O=C1NC2OCC(O)C(O)C2O1 (centres undefined),,> 100 µM

# System: CAKI-1 renal
# Experiment: NCI-60 cell line screen, 48 h
Structure (SMILES),GI50,TGI
CC(=O)O.[Au].c1ccc([PH+](c2ccccc2)c2ccccc2)cc1,2.27 µM,5.35 µM
COC(=O)C(=O)C(C(=O)C=C(C)C)C(=O)C(=O)Nc1ccc(C)cc1C (centres undefined),,> 100 µM
COC(=O)C(=Cc1cc(OC)c(OC)c(OC)c1-c1cc2c(cc1C(C)=O)OCO2)C(=O)OC,,108 µM
CCCS(=O)(=O)/C(=C(\c1ccc(Br)cc1)S(=O)(=O)CCC)c1ccc(Br)cc1,,> 10 µM
O=C1NC2OCC(O)C(O)C2O1 (centres undefined),,> 100 µM

# System: CCRF-CEM leukemia
# Experiment: NCI-60 cell line screen, 48 h
Structure (SMILES),GI50,TGI
CC(=O)O.[Au].c1ccc([PH+](c2ccccc2)c2ccccc2)cc1,0.404 µM,2.34 µM
COC(=O)C(=O)C(C(=O)C=C(C)C)C(=O)C(=O)Nc1ccc(C)cc1C (centres undefined),,> 100 µM
COC(=O)C(=Cc1cc(OC)c(OC)c(OC)c1-c1cc2c(cc1C(C)=O)OCO2)C(=O)OC,,> 211 µM
C/C(=C1/CCC/C(=C(/C)c2ccccc2)C1=O)c1ccccc1,,49.8 µM
CCCS(=O)(=O)/C(=C(\c1ccc(Br)cc1)S(=O)(=O)CCC)c1ccc(Br)cc1,,> 10 µM
O=C1NC2OCC(O)C(O)C2O1 (centres undefined),,> 100 µM

# System: COLO 205 colon
# Experiment: NCI-60 cell line screen, 48 h
Structure (SMILES),GI50,TGI
CC(=O)O.[Au].c1ccc([PH+](c2ccccc2)c2ccccc2)cc1,1.99 µM,4.73 µM
COC(=O)C(=O)C(C(=O)C=C(C)C)C(=O)C(=O)Nc1ccc(C)cc1C (centres undefined),,> 100 µM
COC(=O)C(=Cc1cc(OC)c(OC)c(OC)c1-c1cc2c(cc1C(C)=O)OCO2)C(=O)OC,,66.8 µM
C/C(=C1/CCC/C(=C(/C)c2ccccc2)C1=O)c1ccccc1,,> 100 µM
CCCS(=O)(=O)/C(=C(\c1ccc(Br)cc1)S(=O)(=O)CCC)c1ccc(Br)cc1,,> 10 µM
O=C1NC2OCC(O)C(O)C2O1 (centres undefined),,> 100 µM

# System: DLD-1 colon
# Experiment: NCI-60 cell line screen, 48 h
Structure (SMILES),GI50,TGI
CC(=O)O.[Au].c1ccc([PH+](c2ccccc2)c2ccccc2)cc1,1.9 µM,4.4 µM
COC(=O)C(=O)C(C(=O)C=C(C)C)C(=O)C(=O)Nc1ccc(C)cc1C (centres undefined),,> 100 µM
COC(=O)C(=Cc1cc(OC)c(OC)c(OC)c1-c1cc2c(cc1C(C)=O)OCO2)C(=O)OC,,53.7 µM
C/C(=C1/CCC/C(=C(/C)c2ccccc2)C1=O)c1ccccc1,,> 100 µM
CCCS(=O)(=O)/C(=C(\c1ccc(Br)cc1)S(=O)(=O)CCC)c1ccc(Br)cc1,,> 10 µM
O=C1NC2OCC(O)C(O)C2O1 (centres undefined),,> 100 µM

# System: DMS 114 small cell lung
# Experiment: NCI-60 cell line screen, 48 h
row,Structure (SMILES),TGI
1,COC(=O)C(=O)C(C(=O)C=C(C)C)C(=O)C(=O)Nc1ccc(C)cc1C (centres undefined),> 100 µM
2,COC(=O)C(=Cc1cc(OC)c(OC)c(OC)c1-c1cc2c(cc1C(C)=O)OCO2)C(=O)OC,99.4 µM
3,C/C(=C1/CCC/C(=C(/C)c2ccccc2)C1=O)c1ccccc1,70.3 µM
4,O=C1NC2OCC(O)C(O)C2O1 (centres undefined),> 100 µM

# System: DMS 273 small cell lung
# Experiment: NCI-60 cell line screen, 48 h
Structure (SMILES),GI50,TGI
CC(=O)O.[Au].c1ccc([PH+](c2ccccc2)c2ccccc2)cc1,11.3 µM,55.4 µM
COC(=O)C(=O)C(C(=O)C=C(C)C)C(=O)C(=O)Nc1ccc(C)cc1C (centres undefined),,> 100 µM
COC(=O)C(=Cc1cc(OC)c(OC)c(OC)c1-c1cc2c(cc1C(C)=O)OCO2)C(=O)OC,,69 µM
C/C(=C1/CCC/C(=C(/C)c2ccccc2)C1=O)c1ccccc1,,> 100 µM
CCCS(=O)(=O)/C(=C(\c1ccc(Br)cc1)S(=O)(=O)CCC)c1ccc(Br)cc1,,> 10 µM
O=C1NC2OCC(O)C(O)C2O1 (centres undefined),,> 100 µM

# System: EKVX NSCLC
# Experiment: NCI-60 cell line screen, 48 h
Structure (SMILES),GI50,TGI
CC(=O)O.[Au].c1ccc([PH+](c2ccccc2)c2ccccc2)cc1,3.61 µM,8.56 µM
COC(=O)C(=O)C(C(=O)C=C(C)C)C(=O)C(=O)Nc1ccc(C)cc1C (centres undefined),,> 100 µM
COC(=O)C(=Cc1cc(OC)c(OC)c(OC)c1-c1cc2c(cc1C(C)=O)OCO2)C(=O)OC,,> 211 µM
C/C(=C1/CCC/C(=C(/C)c2ccccc2)C1=O)c1ccccc1,,> 100 µM
CCCS(=O)(=O)/C(=C(\c1ccc(Br)cc1)S(=O)(=O)CCC)c1ccc(Br)cc1,,> 10 µM
O=C1NC2OCC(O)C(O)C2O1 (centres undefined),,> 100 µM

# System: HCC-2998 colon
# Experiment: NCI-60 cell line screen, 48 h
Structure (SMILES),GI50,TGI
CC(=O)O.[Au].c1ccc([PH+](c2ccccc2)c2ccccc2)cc1,7 µM,15.2 µM
COC(=O)C(=O)C(C(=O)C=C(C)C)C(=O)C(=O)Nc1ccc(C)cc1C (centres undefined),,> 100 µM
COC(=O)C(=Cc1cc(OC)c(OC)c(OC)c1-c1cc2c(cc1C(C)=O)OCO2)C(=O)OC,,70.4 µM
C/C(=C1/CCC/C(=C(/C)c2ccccc2)C1=O)c1ccccc1,,> 100 µM
CCCS(=O)(=O)/C(=C(\c1ccc(Br)cc1)S(=O)(=O)CCC)c1ccc(Br)cc1,,> 10 µM
O=C1NC2OCC(O)C(O)C2O1 (centres undefined),,> 100 µM

# System: HCT-116 colon
# Experiment: NCI-60 cell line screen, 48 h
Structure (SMILES),GI50,TGI
CC(=O)O.[Au].c1ccc([PH+](c2ccccc2)c2ccccc2)cc1,1.72 µM,3.2 µM
COC(=O)C(=O)C(C(=O)C=C(C)C)C(=O)C(=O)Nc1ccc(C)cc1C (centres undefined),,> 100 µM
COC(=O)C(=Cc1cc(OC)c(OC)c(OC)c1-c1cc2c(cc1C(C)=O)OCO2)C(=O)OC,,62.5 µM
C/C(=C1/CCC/C(=C(/C)c2ccccc2)C1=O)c1ccccc1,,55.5 µM
CCCS(=O)(=O)/C(=C(\c1ccc(Br)cc1)S(=O)(=O)CCC)c1ccc(Br)cc1,,> 10 µM
O=C1NC2OCC(O)C(O)C2O1 (centres undefined),,> 100 µM

# System: HCT-15 colon
# Experiment: NCI-60 cell line screen, 48 h
Structure (SMILES),GI50,TGI
CC(=O)O.[Au].c1ccc([PH+](c2ccccc2)c2ccccc2)cc1,1.56 µM,3.15 µM
COC(=O)C(=O)C(C(=O)C=C(C)C)C(=O)C(=O)Nc1ccc(C)cc1C (centres undefined),,> 100 µM
COC(=O)C(=Cc1cc(OC)c(OC)c(OC)c1-c1cc2c(cc1C(C)=O)OCO2)C(=O)OC,,50.2 µM
C/C(=C1/CCC/C(=C(/C)c2ccccc2)C1=O)c1ccccc1,,> 100 µM
CCCS(=O)(=O)/C(=C(\c1ccc(Br)cc1)S(=O)(=O)CCC)c1ccc(Br)cc1,,> 10 µM
O=C1NC2OCC(O)C(O)C2O1 (centres undefined),,> 100 µM

# System: HL-60(TB) leukemia
# Experiment: NCI-60 cell line screen, 48 h
Structure (SMILES),GI50,TGI
CC(=O)O.[Au].c1ccc([PH+](c2ccccc2)c2ccccc2)cc1,0.0578 µM,0.266 µM
COC(=O)C(=O)C(C(=O)C=C(C)C)C(=O)C(=O)Nc1ccc(C)cc1C (centres undefined),,> 100 µM
COC(=O)C(=Cc1cc(OC)c(OC)c(OC)c1-c1cc2c(cc1C(C)=O)OCO2)C(=O)OC,,172 µM
